Source: patent publication US20100324285A1, “ANTIINFLAMMATORY AGENT COMPRISING 2-AMINOPHENOL OR DERIVATIVE THEREOF AS ACTIVE INGREDIENT” (priority 2006, published 2010)

Assays:
[1] = test system: RBL-2H3; assay: Degranulation reaction of basocyte (β-hexosaminidase release); assay type: cell-based, rat; details: for concentration at which inhibiting activity on degranulation was exerted: summary of Table 3
Protocol: Degranulation rate (%) and inhibition rate of degranulation (%) were calculated based on the measurements of β-hexosaminidase activity in the granules released from the cells by degranulation reaction.
Rat cancer cells from basocyte RBL-2H3(catalognumber“JCRB0023”, commercialized by Health Science Research Resources Bank of Japan Health Sciences Foundation), known to be degranulated by cross-linkage of IgE, were used after cultured in a MEM medium (commercialized by Nissui Pharmaceutical Co., Ltd.) supplemented with 10% (v/v) FCS.
The above cells were recovered from a flask by conventional trypsin-EDTA treatment, then suspended in a MEM medium supplemented with 10% (v/v) FCS to give a cell concentration of 5×10^5 cells/ml. The suspension was inoculated to a 24-well microplate in a volume of 400 μl per well, cultured in a 5% (v/v) carbon dioxide incubator for 3 to 5 hours, then admixed with 0.625 μg/ml of anti dinitrophenol (hereinafter abbreviated as “DNP”) mouse IgE (commercialized by Sigma-Aldrich, Inc., diluted by MEM medium supplied with 10% (v/v) FCS) in a volume of 100 μl per well to sensitize the cells by IgE (a final concentration of the anti DNP-IgE was 0.125 μg/ml). After the cells were cultured in the 5% (v/v) carbon dioxide incubator overnight, the supernatant was removed by suction, and then each well was washed twice with Siraganian buffer (119 mM NaCl, 5 mM KCl, 0.4 mM MgCl2, 25 mM piperazine-N,N″-bis(2-ethane sulfonic acid) (PIPES), 40 mM NaOH, pH 7.2) by 500 μl per well. After admixed with Siraganian buffer containing 0.1% bovine serum albumin (BSA), 5.6 mM glucose and 1 mM CaCl2 (hereinafter described as “BSA-containing Siraganian buffer) in a volume of 160 μl per well, the microplate was warmed at 37° C. for 15 minutes. As test samples, 2-aminophenoxazine-3-one (questiomycin A), arbutin having skin-whitening effect and oxatomide used as therapeutic agents for allergic diseases (positive control) were diluted with BSA-containing Siraganian buffer to give the concentrations shown in Table 3, any of the test samples was added by 20 μl per well, then the microplate was warmed at 37° C. for 15 minutes (wells with the test samples). The well with any of the test samples was admixed with DNP-albumin (commercialized by Sigma-Aldrich, Inc.) diluted with BSA-containing Siraganian buffer to give a concentration of 50 μg/ml by 20 μl per well, and warmed at 37° C. for 15 minutes. After the 24-well microplate was cooled on ice for 10 minutes, the supernatant was collected and 100 μl thereof was injected into a 96-well microplate to measure the β-hexosaminidase activity in the supernatant. As negative control, BL-2H3 cells were cultured and treated in the same way as the wells admixed with the test samples except for that FCS-supplemented MEM medium containing no antibody was used, and the β-hexosaminidase activity in the supernatant was measured (the well without IgE sensitization). After the supernatants were removed from some of the wells without IgE sensitization, the wells were washed twice with BSA-containing Siraganian buffer and admixed with BSA-containing Siraganian buffer by 200 μl per well. The cells were broken by twice repeating freezing at −80° C. and thawing, whole medium containing the broken cells was collected, centrifuged at 1,500 rpm for 10 minutes, and then 100 μl of the supernatant was injected into a 96-well microplate to measure the β-hexosaminidase activity of the whole granule extract.
Each well of the 96-well microplate injected with any of the supernatant from the wells with the test samples, the supernatant from the wells without IgE sensitization or the whole granule extract described above was admixed with 50 μl of citrate buffer (pH 4.5) containing 1 mM 4-nitrophenyl-N-acetyl-β-glucosaminide (PNAG) as substrate, kept at 37° C. for 1 hour, and then the reaction was stopped by adding 50 μl of 0.1 M sodium carbonate (pH 10.5). […]

[2] = test system: Mouse melanoma cell line B16; assay: Melanin synthesis in B16 cells; assay type: cell-based; details: for Amount of melanin (%): 5 days, per mg protein versus control; for inhibiting effect on melanin production in combinational use: used with 2-aminophenoxsazine-3-one
Protocol: (§1) As control, a system with no test sample was provided. […] The amount of protein was measured by conventional Bradfordmethod and the amount of melanin per 1 mg of protein was calculated. The amount of melanin (%) was calculated according to Formula 4, and the living cell rate (%) was calculated according to Formula 5.
As control, a system with no test sample was provided. […] The amount of protein was measured by conventional Bradford method and the amount of melanin per 1 mg of protein was calculated. The amount of melanin (%) was calculated according to Formula 4.

[3] = test system: RAW264.7 cells; assay: NO production by macrophage RAW264.7, Griess method; assay type: cell-based, mouse; details: LPS + IFN-γ, 2 days, relative level versus control
Source text: As macrophage cells, RAW264.7 cell strain from mouse or macrophage cells obtained from laboratory animals such as mouse can be used. The amount of produced NO can be measured by conventional Griess method. […] RAW264.7 cells, a murine macrophage cell strain, were suspended in PRMI1640 medium supplied with 10% (v/v) fetal calf serum (hereinafter abbreviated as “FCS”) to give a cell suspension with a cell concentration of 1×10^6 cells/ml. […] The experimental system without the test samples described above was set as control. […] NO production, PGE2 production and macrophage growth are indicated as relative levels versus controls.

[4] = test system: RAW264.7 cells; assay: PGE2 production by macrophage RAW264.7, PGE2-EIA kit; assay type: cell-based, mouse; details: LPS + IFN-γ, 2 days, relative level versus control
Source text: (§2) RAW264.7 cells, a murine macrophage cell strain, were suspended in PRMI1640 medium supplied with 10% (v/v) fetal calf serum (hereinafter abbreviated as “FCS”) to give a cell suspension with a cell concentration of 1×10^6 cells/ml. […] The experimental system without the test samples described above was set as control. […] NO production, PGE2 production and macrophage growth are indicated as relative levels versus controls.

[5] = test system: RAW264.7 cells; assay: Macrophage growth, living cell count; assay type: cell-based, mouse; details: 2 days, relative level versus control
Source text: as §2

[6] = test system: Mouse melanoma cell line B16; assay: Living cell rate of B16 cells; details: mouse, 5 days
Protocol: as §1

SMILES: OC[C@H]1O[C@@H](Oc2ccc(O)cc2)[C@H](O)[C@@H](O)[C@@H]1O [AB, arbutin]
- inhibition at 31.3 µM ([1]; Rattus norvegicus, RBL-2H3, 31.3 μM, read-out: Inhibition intensity of degranulation): -30 to 30%
- inhibition at 200 µM ([1]; Rattus norvegicus, RBL-2H3, 200 μM, read-out: Inhibition intensity of degranulation): -30 to 30%
- inhibition at 500 µM ([1]; Rattus norvegicus, RBL-2H3, 500 μM, read-out: Inhibition intensity of degranulation): -30 to 30%
- inhibition at 2000 µM ([1]; Rattus norvegicus, RBL-2H3, 2000 μM, read-out: Inhibition intensity of degranulation): -30 to 30%
- concentration at which inhibiting activity on degranulation was exerted [1]: no inhibition activity on degranulation

SMILES: O=C1O[C@H]([C@@H](O)CO)C(O)=C1O[C@H]1O[C@H](CO)[C@@H](O)[C@H](O)[C@H]1O [Ascorbic acid 2-glucoside, ascorbic acid 2-glucoside]
- Amount of melanin (%) ([2]; 2 mM): 80%
- Amount of melanin (%) ([2]; 4 mM): 68%
- Amount of melanin (%) ([2]; 8 mM): 63%
- inhibiting effect on melanin production in combinational use [2]: synergistically exert inhibiting effect on melanin production

SMILES: COc1ccc2c(c1)c(CC(=O)O)c(C)n2C(=O)c1ccc(Cl)cc1 [IN, indomethacin]
- NO production (%) ([3]; 0.16 μM): 86%
- NO production (%) ([3]; 0.31 μM): 84%
- NO production (%) ([3]; 0.63 μM): 81%
- NO production (%) ([3]; 1.3 μM): 82%
- NO production (%) ([3]; 2.5 μM): 80%
- NO production (%) ([3]; 5.0 μM): 80%
- NO production (%) ([3]; 10 μM): 78%
- PGE2 production (%) ([4]; 0.16 μM): 4%
- PGE2 production (%) ([4]; 0.31 μM): 4%
- PGE2 production (%) ([4]; 0.63 μM): 4%
- PGE2 production (%) ([4]; 1.3 μM): 3%
- PGE2 production (%) ([4]; 2.5 μM): 1%
- PGE2 production (%) ([4]; 5.0 μM): 2%
- PGE2 production (%) ([4]; 10 μM): 1%
- Macrophage growth (%) ([5]; 0.16 μM): 102%
- Macrophage growth (%) ([5]; 0.31 μM): 104%
- Macrophage growth (%) ([5]; 0.63 μM): 108%
- Macrophage growth (%) ([5]; 1.3 μM): 117%
- Macrophage growth (%) ([5]; 2.5 μM): 120%
- Macrophage growth (%) ([5]; 5.0 μM): 122%
- Macrophage growth (%) ([5]; 10 μM): 120%

SMILES: O=c1cc(CO)occ1O [Koji acid, kojic acid]
- Amount of melanin (%) ([2]; 0.5 mM): 79%
- Amount of melanin (%) ([2]; 1 mM): 71%
- Amount of melanin (%) ([2]; 2 mM): 59%
- inhibiting effect on melanin production in combinational use [2]: synergistically exert inhibiting effect on melanin production
- Living cell rate (%) ([6]; 0.5 mM): 93%
- Living cell rate (%) ([6]; 1 mM): 86%
- Living cell rate (%) ([6]; 2 mM): 73%

SMILES: CS(=O)(=O)Nc1ccc([N+](=O)[O-])cc1OC1CCCCC1 [NS]
- NO production (%) ([3]; 0.16 μM): 90%
- NO production (%) ([3]; 0.31 μM): 89%
- NO production (%) ([3]; 0.63 μM): 87%
- NO production (%) ([3]; 1.3 μM): 85%
- NO production (%) ([3]; 2.5 μM): 85%
- NO production (%) ([3]; 5.0 μM): 88%
- NO production (%) ([3]; 10 μM): 84%
- PGE2 production (%) ([4]; 0.16 μM): 4%
- PGE2 production (%) ([4]; 0.31 μM): 4%
- PGE2 production (%) ([4]; 0.63 μM): 2%
- PGE2 production (%) ([4]; 1.3 μM): 1%
- PGE2 production (%) ([4]; 2.5 μM): 1%
- PGE2 production (%) ([4]; 5.0 μM): 5%
- PGE2 production (%) ([4]; 10 μM): 2%
- Macrophage growth (%) ([5]; 0.16 μM): 95%
- Macrophage growth (%) ([5]; 0.31 μM): 97%
- Macrophage growth (%) ([5]; 0.63 μM): 99%
- Macrophage growth (%) ([5]; 1.3 μM): 102%
- Macrophage growth (%) ([5]; 2.5 μM): 100%
- Macrophage growth (%) ([5]; 5.0 μM): 105%
- Macrophage growth (%) ([5]; 10 μM): 110%

SMILES: O=c1[nH]c2ccccc2n1CCCN1CCN(C(c2ccccc2)c2ccccc2)CC1 [OX, oxatomide]
- inhibition at 1.5 µM ([1]; Rattus norvegicus, RBL-2H3, 1.5 μM, read-out: Inhibition intensity of degranulation): -30 to 30%
- inhibition at 5 µM ([1]; Rattus norvegicus, RBL-2H3, 5 μM, read-out: Inhibition intensity of degranulation): -30 to 30%
- inhibition at 23 µM ([1]; Rattus norvegicus, RBL-2H3, 23 μM, read-out: Inhibition intensity of degranulation): 30 to 50%
- inhibition at 94 µM ([1]; Rattus norvegicus, RBL-2H3, 94 μM, read-out: Inhibition intensity of degranulation): ≥ 50%
- concentration at which inhibiting activity on degranulation was exerted [1]: ≥ 23 µM

SMILES: OC[C@H]1O[C@H](O[C@H]2O[C@H](CO)[C@@H](O)[C@H](O)[C@H]2O)[C@H](O)[C@@H](O)[C@@H]1O [Trehalose, trehalose]
- Amount of melanin (%) ([2]; 20 mM): 82%
- Amount of melanin (%) ([2]; 40 mM): 75%
- Amount of melanin (%) ([2]; 80 mM): 66%
- inhibiting effect on melanin production in combinational use [2]: synergistically exert inhibiting effect on melanin production
